Measurements taken from patent US20230293412A1, “SHAMPOOS AND METHODS OF PREPARING AND USING THE SAME” (SHANDONG BENZHEN COSMETICS CO., LTD, priority 2020, published 2023).

Legend:
[1] = Surface tension of surfactants diluted 200 and 6000 times; format: physicochemical; details: 25° C.; for Surface tension 1:200: surfactant diluted 200 times with triple distilled water; for Surface tension 1:6000: surfactant diluted 6000 times with triple distilled water
Experimental: We classify surfactants into three types: anionic surfactants, zwitterionic surfactants, and nonionic surfactants. Experimental studies on the surface tension and acute toxicity of fish were conducted on the above-mentioned main surfactants and other kinds of surfactants used in shampoo, bath and other care products.
(§1) Test method. The experimental environment is at a constant temperature of 25° C., the surfactants is diluted 200 and 6000 times with triple distilled water. The surface tension is tested by JY-200C full-automatic interfacial tensiometer, referring to (GB5545 Surfactant Determination of surface tension by pulling up liquid film). The fish acute toxicity test is carried out tin the aqueous solution diluted 6000 times with surfactant, referencing to (GB/T 21281-2007 fish acute toxicity test classification test method of hazardous chemicals).

fish = experiment: Fish acute toxicity test of surfactants; format: in vivo; details: for survival time: fish in aqueous solution of surfactant diluted 6000 times, 25° C.; for fish survival: fish in surfactant solution at 1:6000
Experimental: as §1

Question: With Sodium Cocoyl Isethionate-85 [SCI-85] as the compound, how does the “Surface tension 1:200” value [1] read?
Answer: 30.6 mN/m

Question: What about the “Surface tension 1:6000” value [1] of the same compound?
Answer: 42.8 mN/m

Question: And the survival time (fish)?
Answer: 24 min

Question: Which “Surface tension 1:200” value [1] does the source give for cocamidopropyl betaine [CAB] here?
Answer: 31.3 mN/m

Question: What about the “Surface tension 1:6000” value [1] of the same compound?
Answer: 32.4 mN/m

Question: And the survival time (fish)?
Answer: 27 min

Question: Which “Surface tension 1:200” value [1] does the source give for Imidazoline (import) [ZMLj] here?
Answer: 28.5 mN/m

Question: And the “Surface tension 1:6000” value [1]?
Answer: 31.3 mN/m

Question: And the survival time (fish)?
Answer: 64 min

Question: For Alkyl glycoside (import) [APGj], which “Surface tension 1:200” value [1] is on record?
Answer: 28.1 mN/m

Question: And the “Surface tension 1:6000” value [1]?
Answer: 28.6 mN/m

Question: What about the survival time (fish) of the same compound?
Answer: 25 min

Question: What does the source list for ammonium laureth ether sulfate [AES-A]?
Answer: Surface tension 1:200 [1]: 34.9 mN/m; Surface tension 1:6000 [1]: 32.9 mN/m

Question: For `CCCCCCCCCCCCOS(=O)(=O)O.N` [Shampoo K12-A, ammonium lauryl sulfate], which “Surface tension 1:200” value [1] is on record?
Answer: 26.7 mN/m

Question: And the “Surface tension 1:6000” value [1]?
Answer: 38.9 mN/m

Question: Which “Surface tension 1:200” value [1] does the source give for Sodium α-alkenyl sulfonate [AOS] here?
Answer: 31.8 mN/m

Question: And the “Surface tension 1:6000” value [1]?
Answer: 41.8 mN/m

Question: For Alkyl glycoside (C12-C14) [APG2], which “Surface tension 1:200” value [1] is on record?
Answer: 28.2 mN/m

Question: What about the “Surface tension 1:6000” value [1] of the same compound?
Answer: 28.5 mN/m

Question: What about the survival time (fish) of the same compound?
Answer: 25 min

Question: Which “Surface tension 1:200” value [1] does the source give for “Fatty alcohol polyoxyethylene ether [AEO-3]” here?
Answer: 27.2 mN/m

Question: And the “Surface tension 1:6000” value [1]?
Answer: 27.3 mN/m

Question: What about the survival time (fish) of the same compound?
Answer: 27 min

Question: Which “Surface tension 1:200” value [1] does the source give for sodium laureth ether sulfate [AES] here?
Answer: 36.4 mN/m

Question: What about the “Surface tension 1:6000” value [1] of the same compound?
Answer: 36.2 mN/m

Question: For Methyl glucose dioleate [DOE-120], which “Surface tension 1:200” value [1] is on record?
Answer: 42.6 mN/m

Question: And the “Surface tension 1:6000” value [1]?
Answer: 49.4 mN/m

Question: And the survival time (fish)?
Answer: >1440 min

Question: And the fish survival (fish)?
Answer: 24 h

Question: With Imidazoline [MZL] as the compound, how does the “Surface tension 1:200” value [1] read?
Answer: 29.1 mN/m

Question: And the “Surface tension 1:6000” value [1]?
Answer: 45.5 mN/m

Question: And the survival time (fish)?
Answer: 134 min

Question: With `CCCCCCCCCCCC(=O)N(C)CC(=O)[O-].[Na+]` [Shampoo 4202, Sodium lauroyl sarcosinate (30%)] as the compound, how does the “Surface tension 1:200” value [1] read?
Answer: 27.9 mN/m

Question: What about the “Surface tension 1:6000” value [1] of the same compound?
Answer: 64.8 mN/m

Question: And the survival time (fish)?
Answer: >1440 min

Question: What about the fish survival (fish) of the same compound?
Answer: 24 h

Question: Which results are given for `CCCCCCCCCCCCOS(=O)(=O)[O-].[Na+]` [Shampoo K12, Sodium lauryl sulfate]?
Answer: Surface tension 1:200 [1]: 35.0 mN/m; Surface tension 1:6000 [1]: 40.8 mN/m

Question: Which “Surface tension 1:200” value [1] does the source give for “Sodium dodecyl ether phosphate [Shampoo 1211]” here?
Answer: 35.2 mN/m

Question: What about the “Surface tension 1:6000” value [1] of the same compound?
Answer: 40.5 mN/m

Question: And the survival time (fish)?
Answer: 284 min

Question: For Sodium secondary alkyl sulfonate [SAS], which “Surface tension 1:200” value [1] is on record?
Answer: 31.3 mN/m

Question: What about the “Surface tension 1:6000” value [1] of the same compound?
Answer: 41.5 mN/m

Question: And the survival time (fish)?
Answer: 41 min

Question: With Sulfobetaine [ASB] as the compound, how does the “Surface tension 1:200” value [1] read?
Answer: 35.3 mN/m

Question: What about the “Surface tension 1:6000” value [1] of the same compound?
Answer: 47.5 mN/m

Question: What about the survival time (fish) of the same compound?
Answer: 42 min

Question: For “Fatty alcohol polyoxyethylene ether [AEO-9]”, which “Surface tension 1:200” value [1] is on record?
Answer: 30.2 mN/m

Question: And the “Surface tension 1:6000” value [1]?
Answer: 30.4 mN/m

Question: What about the survival time (fish) of the same compound?
Answer: 18 min

Question: Which results are given for “Lauramide propyl amine oxide [Shampoo 4501]”?
Answer: Surface tension 1:200 [1]: 30.5 mN/m; Surface tension 1:6000 [1]: 31.2 mN/m; survival time (fish): 15 min

Question: With Alkyl glycoside (C8-C10) [APG1] as the compound, how does the “Surface tension 1:200” value [1] read?
Answer: 28.3 mN/m

Question: What about the “Surface tension 1:6000” value [1] of the same compound?
Answer: 47.3 mN/m

Question: What about the survival time (fish) of the same compound?
Answer: 33 min

Question: Which “Surface tension 1:200” value [1] does the source give for “Fatty alcohol polyoxyethylene ether [AEO-7]” here?
Answer: 27.6 mN/m

Question: And the “Surface tension 1:6000” value [1]?
Answer: 29.3 mN/m

Question: What about the survival time (fish) of the same compound?
Answer: 21 min

Question: Which results are given for “Coconut oil fatty acid diethanolamide [Shampoo 6501]”?
Answer: Surface tension 1:200 [1]: 26.0 mN/m; Surface tension 1:6000 [1]: 27.6 mN/m; survival time (fish): 44 min
